Source: patent US10196356B2, “Mixed disulfide conjugates of thienopyridine compounds and uses thereof” (The Regents of the University of Michigan, priority 2013, dated 2019)
Like-named read-outs stand apart in the source and are kept apart here.

What was measured:
[1] = Rate of formation of the AM from 2-oxoclopidogrel by HLMs in the presence of various thiol reductants; assay type: in vitro ADME, human; settings: 0.3 mM thiol reductant; HLM, 0.1 mM 2-oxoclopidogrel
Protocol: The AM was produced in 0.1 ml of 50 mM KP buffer (pH 7.4) containing 0.2 mg/ml HLM, 0.1 mM 2-oxoclopidogrel, the NADPH-regenerating system, and the thiol reductants. The concentrations of the thiol reductants were 1 mM except for CPT, DFT and NPT which were 0.3 mM each. The reaction was initiated by the addition of 5 units of G6PD and incubated at 37° C. for 20 min. The active metabolite was then quantitated as the MP derivative as described in Materials and Methods. The reported rates were averaged over three separate measurements.
To examine the effects of various thiol reductants on the formation of the active metabolite (AM), the rates at which the AM was produced were determined. Production of the AM was performed in 0.1 ml of 50 mM potassium phosphate (KPi) buffer (pH 7.4) containing 0.2 mg/mL HLM, 0.1 mM 2-oxoclopidogrel, the NADPH-regenerating system, and 1 mM of each of the thiol reductants except that 0.3 mM CPT, DFT, or NPT were used. The reaction was initiated by the addition of 5 units of glucose-6-phosphate dehydrogenase (G6PD) and incubated at 37° C. for 20 min. The AM was then derivatized with 4 mM MPB at room temperature for 10 min, followed by acidification with acetic acid to 3% (v/v). For quantification, 50 pmoles of (S)-clopidogrel was added into each reaction mixture as internal standard (IS). The derivatized AM (AM-MP) was quantitated using LC-MS/MS.
The MS analyses of the reaction mixture were performed on an ion-trap mass spectrometer (LCQ DecaXP, Thermo Fisher Scientific, Waltham, Mass.) as reported previously (Zhang et al., 2012). In brief, the metabolites of 2-oxoclopidogrel were separated on a reverse phase C18 column (2×100 mm, 3 μm, Phenemonex, Calif.) using a binary mobile phase at a flow rate of 0.2 ml/min. The temperature of the C18 column was maintained at 40° C. using a column heater (Restek Corporation, Lancaster, Pa.). […] Transitions from m/z 504→m/z 354 for the AM-MP and from m/z 322→m/z 212 for the IS were used to quantitate the amount of the AM-MP based on a calibration curve consisting of various concentrations of cis-clopidogrel-MP.

[2] = Formation of mixed disulfide conjugates of clopidogrel by HLMs (Km of thiol); assay type: in vitro ADME, human; settings: 2-oxoclopidogrel, read-out: Km for the formation of the mixed disulfide conjugate
Protocol: The mixed disulfide conjugates were produced by HLMs for both structural and semi-quantitative analyses. Metabolism of 2-oxoclopidogrel was performed in 0.2 ml of 50 mM KP buffer (pH 7.4) as described above except that the concentration of HLMs was increased to 1 mg/ml. The reaction was incubated at 37° C. for 30 min and then quenched by the addition of 0.1 ml of 10% of acetic acid in acetonitrile. The quenched samples were centrifuged at 13,000×g for 10 min to remove the HLMs. Aliquots of 50 μl of the supernatant were loaded onto a mass spectrometer to analyze both the active and conjugate metabolites.
The MS analyses were performed as described above except that the MS detector was operated in the dependent scan mode. The precursor ions were scanned from m/z 300-700, whereas the MS^2 spectra were obtained from m/z 100 to 700 for the four most abundant ions. For semi-quantitative analysis, 50 pmoles of the IS was spiked into each sample that had been quenched. The relative amounts of the AM and respective conjugates were calculated as the AUC ratios of the metabolites to that of the IS.

[3] = test system: platelet aggregation; experiment: In vivo antiplatelet activity after intravenous injection; design: species or system male New Zealand (NZ) white rabbits
Protocol: FIG. 9 presents platelet activities of male NZ white rabbits following IV injection of (S)-clopNPT as described in Example X.
The antiplatelet activity of the mixed disulfide conjugates of clopidogrel was determined using male NZ white rabbits (1.2-1.25 kg).
To prepare intravenous solution, (S)-clopNPT was dissolved at 0.7 mg/ml in a mixture of N,N-dimethylacetamide (DMA), polyethylene glycol (PEG) 400, and saline at 5, 15 and 80 (v/v) ratio. The male NZ white rabbits were dosed at 2 mg/kg of (S)-clopNPT using two different methods. In Method 1, the intravenous solution was first mixed with 5 mM glutathione. After an incubation of 15 min at 37° C. to activate (S)-clopNPT, the mixture was intravenously injected to the rabbit via the jugular vein. In Method 2, the male NZ white rabbit was fed with 5 ml of Readisorb glutathione solution once daily for three days to increase cellular glutathione concentrations. On the third day, (S)-clopNPT dissolved in DMA/PEG400/saline was injected intravenously to the Readisorb-treated rabbit. As a negative control, (S)-clopidogrel was dosed intravenously to a male NZ white rabbit at 2 mg/kg as well. Prior to and 1 and 2 hours after dosing (S)-clopNPT, whole blood was drawn from the carotid artery into a plastic syringe containing 3.7% sodium citrate as the anticoagulant (1:10 volume ratio of citrate to blood). A whole blood cell count was determined with a Medonic CA620 hematology analyzer (Clinical Diagnostic Solutions, Inc., Plantation, Fla., USA). Platelet-rich plasma (PRP), the supernatant present after centrifugation of whole blood at 100×g for 10 min, was diluted with platelet-poor plasma (PPP) to achieve a platelet count of approximately 300,000/μl. […] Platelet aggregation was assessed by established nephelometric methods with the use of a 4-channel aggregometer (BioData PAP-4; BioData Corp., Horsham, Pa., USA) by recording the increase in light transmission through a stirred suspension of PRP maintained at 37° C. […]

[4] = read-out: Km for GSH; previously reported (Zhang 2012); cited from earlier work
[5] = test system: platelets (P2Y12 receptor); experiment: Ex vivo anti-platelet activity of the mixed disulfide conjugates (ADP-induced aggregation, aggregometer); assay type: cell-based, New Zealand white rabbits; settings: free GSH 1 mM in PRP; 10 μM ADP
Protocol: The mixed disulfide conjugates were prepared and purified from the reaction mixtures in the presence of 0.3 mM CPT and NPT, along with three control samples containing either 1 mM GSH, no thiol reductant or no G6PD. All samples were re-suspended in 0.5 ml PPP, some of which were treated to 1 mM GSH to release the AM. Platelet aggregation was initiated by the addition of 10 μM ADP and recorded with an aggregometer. The percentage of aggregation was normalized to that of PRP and averaged over four separate measurements. For details, see Materials and Methods. Legend: PRP, untreated platelet-rich plasma; GSH, 1 mM GSH in PRP; −G6PD, metabolites produced in the absence of G6PD; —SH, metabolites produced in the absence of any thiol reductants; GSH, metabolites produced in the presence of 1 mM GSH; CPT, metabolites produced in the presence of 0.3 mM CPT; CPT+GSH, metabolites produced in the presence of 0.3 mM CPT and then treated with 1 mM GSH; NPT, metabolites produced in the presence of 0.3 mM NPT; NPT+GSH, metabolites produced in the presence of 0.3 mM NPT and then treated with 1 mM GSH.
In order to generate sufficient quantities of the mixed disulfide conjugates, the metabolism of 2-oxoclopidogrel was performed in 2-ml reaction mixtures containing 1 mg/ml HLM, 0.1 mM 2-oxoclopidogrel, the NADPH-regenerating system, and 0.3 mM CPT or NPT or 1 mM GSH. The reaction was initiated by the addition of 10 units G6PD and incubated at 37° C. for 50 min. Two control samples were prepared in parallel. […] After an incubation of 50 min, the reaction mixtures were centrifuged at 13,000×g to remove the HLMs. The supernatants were loaded onto SPE C18 cartridges to enrich the mixed disulfide conjugates. After extensive washing with water to remove salts and other water-soluble metabolites, the conjugate samples were eluted with 2 ml of methanol. The methanolic fractions were dried using a Speedvac concentrator and the dried samples were then re-suspended in 1 ml of platelet-poor plasma (PPP). Prior to the anti-platelet activity assays, the re-suspended conjugates were divided into two equal volumes (0.5 ml each), one of which was treated with 1 mM GSH at 37° C. for 30 min to generate the AM. Both samples were then placed on ice until use.
The procedures used to determine ex vivo anti-platelet activity were previously reported (see, e.g., Abell L M and Liu E C (2011) J Pharm Exp Ther 339(2):589-596).
Male New Zealand white rabbits (2.2-2.9 kg) were used as blood donors. Whole blood was drawn from a central ear artery into a plastic syringe containing 3.7% sodium citrate as the anticoagulant (1:10 volume ratio of citrate to blood). A whole blood cell count was determined with a Medonic CA620 hematology analyzer (Clinical Diagnostic Solutions, Inc., Plantation, Fla., USA). Platelet-rich plasma (PRP), the supernatant present after centrifugation of whole blood at 100×g for 10 min, was diluted with PPP to achieve a platelet count of approximately 300,000/μl. Platelet-poor plasma was prepared by centrifuging the remaining blood at 1,500×g for 10 min and discarding the bottom cellular layer. The diluted PRP was divided into 0.5 ml samples, centrifuged again at 170×g for 10 mins, and the resulting supernatant was discarded. The platelet pellets were re-suspended in platelet-poor plasma containing the various chemical inhibitors prepared as described previously and incubated with gentle shaking at 37° C. for 60 min to modify the P2Y12 receptor. Ex vivo platelet aggregation was assessed by established nephelometric methods with the use of a 4-channel aggregometer (BioData PAP-4; BioData Corp., Horsham, Pa., USA) by recording the increase in light transmission through a stirred suspension of PRP maintained at 37° C. Platelet aggregation was induced with ADP (10 μM). A subaggregatory concentration of epinephrine (550 nM) was used to prime the platelets before addition of the agonist.

SMILES | formation of the AM (in words) [1] | Km [2] [µM] | also measured
Sc1ccc(Cl)nn1 [CPT, 6-chloropyridazine-3-thiol] | No AM was observed | 23 | –
COC(=O)C(c1ccccc1Cl)N1CCC(SSc2ncccc2[N+](=O)[O-])C(=CC(=O)O)C1 [(S)-clopNPT] | – | – | inhibition of platelet activity ([3]; 2 mg/kg IV, Readisorb-treated rabbit, within one hour of IV injection): ~70%; inhibition of platelet aggregation ([3]; 2 mg/kg IV, dosed with glutathione or to Readisorb glutathione treated rabbit): more than 50%
Cc1cc(S)c(C)o1 [DFT, 2,5-dimethylfuran-3-thiol] | No AM was observed | 30 | –
N[C@@H](CCC(=O)N[C@@H](CS)C(=O)NCC(=O)O)C(=O)O [GSH, glutathione, reference compound] | – | – | Km [4]: 300 µM; effect on platelet aggregation [5]: no effect on platelet aggregation
O=[N+]([O-])c1cccnc1S [NPT, 3-nitropyridine-2-thiol] | No AM was observed | 51 | –
COC(=O)[C@H](c1ccccc1Cl)N1CCc2sccc2C1 [(S)-clopidogrel, (+)-(S)-methyl 2-(2-chlorophenyl)-2-(6,7-dihdrothieno[3,2-c]pyridine-5(4H)-yl)acetate, reference compound] | – | – | inhibition of platelet aggregation (in words) ([3]; 2 mg/kg intravenously, blood 1 and 2 hours after dosing, 10 μM ADP): did not inhibit platelet aggregation
